Experimental data: ChEMBL document CHEMBL5550114, “Disclosure of cinnamic acid/4,9-diaminoacridine conjugates as multi-stage antiplasmodial hits” (Bioorg Med Chem, 2024)
Calls of active or inactive are those of the source. The calls are words filed in the database; no cut-off is given here.

Experiments:
Plasmodium falciparum [1] = assay: Antiplasmodial activity against CQ-sensitive blood stage Plasmodium falciparum 3D7 infected in group B human erythrocytes assessed as parasitic growth inhibition measured after 48 hrs by flow cytometry; format: functional, organism-based; conditions: 3D7, Erythrocyte
Plasmodium berghei [2] = assay: Antiplasmodial activity against GFP-Luccon-fused liver stage Plasmodium berghei infected in human Huh-7 cells assessed as parasitic growth inhibition at 10 uM measured after 48 hrs by bioluminescence assay; format: functional, organism-based
Plasmodium berghei [3] = assay: Antiplasmodial activity against GFP-Luccon-fused liver stage Plasmodium berghei infected in human Huh-7 cells assessed as parasitic growth inhibition at 1 uM measured after 48 hrs by bioluminescence assay; format: functional, organism-based
Huh-7 = assay: Cytotoxicity against human Huh-7 cells assessed as cell viability at 10 uM measured after 48 hrs by Alamar blue staining based analysis; format: toxicity; conditions: huh-7, 48 h
Plasmodium falciparum [4] = assay: Antiplasmodial activity against gametocyte stage Plasmodium falciparum NF54-gexp02-Tom infected in group B human erythrocytes assessed as parasitic growth inhibition measured after 15 days by Geimsa staining based analysis; format: functional, organism-based; conditions: Erythrocyte, 360 h
Plasmodium berghei [5] = assay: Antiplasmodial activity against GFP-Luccon-fused liver stage Plasmodium berghei infected in human Huh-7 cells assessed as parasitic growth inhibition measured after 48 hrs by Alamar blue staining based analysis; format: functional, organism-based; conditions: Huh-7, 48 h
Plasmodium falciparum [6] = assay: Antiplasmodial activity against CQ-sensitive blood stage Plasmodium falciparum 3D7 assessed as parasitic growth inhibition; format: functional, organism-based

Compound | IC50 (Plasmodium falciparum [1]) [nM] | inhibition (Plasmodium berghei [2]) | inhibition (Plasmodium berghei [3]) | Activity (Huh-7) | IC50 (Plasmodium falciparum [4]) [nM] | IC50 (Plasmodium berghei [5]) [nM] | IC50 (Plasmodium falciparum [6]) [nM]
CCN(CC)CCCC(C)Nc1c2ccc(Cl)cc2nc2c(NCCCCNC(=O)/C=C/c3ccccc3)cc(OC)cc12 (stereo not drawn) | 143 | Active | inactive | Toxic | 461 |  | 
CCN(CC)CCCC(C)Nc1c2ccc(Cl)cc2nc2c(NCCCCNC(=O)/C=C/c3ccc(OC)cc3)cc(OC)cc12 (stereo not drawn) | 153 | Active | inactive | Toxic |  |  | 
COc1cc(NC(C)CCCN)c2ncccc2c1 (stereo not drawn) [PRIMAQUINE] |  | Active | inactive |  | 17700 |  | 
CCN(CC)CCCNc1c2ccc(Cl)cc2nc2c(NCCCCNC(=O)/C=C/c3ccc(F)cc3)cc(OC)cc12 | 348 | Active | inactive | Toxic |  |  | 
CCN(CC)CCCNc1c2ccc(Cl)cc2nc2c(NCCCCNC(=O)/C=C/c3cccc(F)c3)cc(OC)cc12 | 161 | Active | inactive | Toxic | ~430 |  | 
COc1ccc(/C=C/C(=O)NCCCCNc2cc(OC)cc3cc4ccc(Cl)cc4nc23)cc1 |  | Active | inactive |  |  |  | 
CCN(CC)CCCC(C)Nc1c2ccc(Cl)cc2nc2c(NCCCCNC(=O)/C=C/c3ccc(F)cc3)cc(OC)cc12 (stereo not drawn) | 178 | Active | inactive | Toxic | 645 |  | 
CCN(CC)CCCC(C)Nc1c2ccc(Cl)cc2nc2c(NCCCCN)cc(OC)cc12 (stereo not drawn) |  | Active | inactive | Non-Toxic |  | 11000 | 680
CCN(CC)CCCNc1c2ccc(Cl)cc2nc2c(NCCCCNC(=O)/C=C/c3ccccc3)cc(OC)cc12 | 80 | Active | inactive | Toxic |  |  | 
CCN(CC)CCCNc1c2ccc(Cl)cc2nc2c(NCCCCNC(=O)/C=C/c3ccc(OC)cc3)cc(OC)cc12 | 164 | Active | inactive | Toxic | 474 |  | 
CCN(CC)CCCC(C)Nc1c2ccc(Cl)cc2nc2c(NCCCCNC(=O)/C=C/c3cccc(F)c3)cc(OC)cc12 (stereo not drawn) | 164 | Active | inactive | Toxic |  |  | 
COc1cc(NCCCCNC(=O)/C=C/c2ccc(F)cc2)c2nc3cc(Cl)ccc3cc2c1 |  | Active | inactive |  |  |  | 
COc1cc(NCCCCNC(=O)/C=C/c2cccc(F)c2)c2nc3cc(Cl)ccc3cc2c1 |  | Active | inactive |  |  |  | 
CCN(CC)CCCC(C)Nc1ccnc2cc(Cl)ccc12 (stereo not drawn) |  | Active | inactive |  |  |  | 
COc1cc(NCCCCNC(=O)/C=C/c2ccccc2)c2nc3cc(Cl)ccc3cc2c1 |  | Active | inactive |  |  |  | 
CCN(CC)CCCNc1c2ccc(Cl)cc2nc2c(NCCCCN)cc(OC)cc12 |  | Active | inactive | Non-Toxic |  |  | 440
